pIC50: −log10 of the molar value. Like-named read-outs stand apart in the source and are kept apart here.
Assays:
[1] = tested on: Capan-1 (K-Ras G12V); assay: CellTiter-Glo cell viability assay, 5-day treatment; assay type: cell-based; conditions: Homo sapiens, CAPAN-1, 120 h, 5-day treatment; read-out: Capan-1 Cell Viability assay data (K-Ras G12V, IC50)
Procedure, shortened: (§1)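 Five-day compound treatment of plated cells; luminescent read after ~30 min at RT. Percent-of-DMSO data fit to a four-parameter logistic model.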

[2] = tested on: NCI-H358 (K-Ras G12C); assay: as above; assay type: cell-based; conditions: Homo sapiens, NCI-H358, 120 h, 5-day treatment; read-out: H358 Cell Viability assay data (K-Ras G12C, IC50)
Procedure, shortened: as §1

[3] = target: KRAS G12C (Homo sapiens, UniProt P01116+P62937, G12C); assay: Disruption of BRAF RBD interaction with Ras (FRET / MOA assay, with Cyclophilin A); assay type: biochemical
Chain of KRAS G12C (P01116 1-169 isoform P01116-2 G12C): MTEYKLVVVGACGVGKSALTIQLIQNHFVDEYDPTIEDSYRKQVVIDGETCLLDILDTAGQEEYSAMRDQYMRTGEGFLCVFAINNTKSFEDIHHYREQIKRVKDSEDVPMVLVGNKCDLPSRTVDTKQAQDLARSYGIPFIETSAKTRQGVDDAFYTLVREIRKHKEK
Chain of KRAS G12C (P62937 whole entry): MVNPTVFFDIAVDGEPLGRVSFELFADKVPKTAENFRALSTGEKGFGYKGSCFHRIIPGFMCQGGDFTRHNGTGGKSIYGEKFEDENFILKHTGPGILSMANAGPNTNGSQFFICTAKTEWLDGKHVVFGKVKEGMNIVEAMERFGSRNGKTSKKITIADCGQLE
Procedure, shortened: (§2)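 Measured via TR-FRET after 3 h at 25 °C with compound (30 μM top, threefold serial steps, ten concentrations) plus K-Ras, Cyclophilin A and BRAF RBD, followed by 1.5 h with anti-His europium (10 nM) and anti-GST allophycocyanin (50 nM). Signal loss versus DMSO gave IC50.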

[4] = target: KRAS G12D (Homo sapiens, UniProt P01116+P62937, G12D); assay: as above; assay type: biochemical
Chain of KRAS G12D (P01116 1-169 isoform P01116-2 G12D limits assumed): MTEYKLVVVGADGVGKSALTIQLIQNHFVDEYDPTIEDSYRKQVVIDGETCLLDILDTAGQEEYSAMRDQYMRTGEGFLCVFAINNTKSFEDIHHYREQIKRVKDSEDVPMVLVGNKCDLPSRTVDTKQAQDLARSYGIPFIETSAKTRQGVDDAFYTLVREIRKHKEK
Chain of KRAS G12D (P62937 whole entry): as the sequence (P62937 whole entry) above
Procedure, shortened: as §2

[5] = target: KRAS G12S (Homo sapiens, UniProt P01116+P62937, G12S); assay: as above; assay type: biochemical
Chain of KRAS G12S (P01116 1-169 isoform P01116-2 G12S limits assumed): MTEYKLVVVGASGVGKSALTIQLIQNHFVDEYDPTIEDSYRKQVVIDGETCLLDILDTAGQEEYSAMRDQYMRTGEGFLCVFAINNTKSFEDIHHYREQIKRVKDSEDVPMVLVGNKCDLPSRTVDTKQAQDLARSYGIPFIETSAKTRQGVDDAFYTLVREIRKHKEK
Chain of KRAS G12S (P62937 whole entry): as the sequence (P62937 whole entry) above
Procedure, shortened: as §2

[6] = target: KRAS G12V (Homo sapiens, UniProt P01116+P62937, G12V); assay: as above; assay type: biochemical
Chain of KRAS G12V (P01116 1-169 isoform P01116-2 G12V limits assumed): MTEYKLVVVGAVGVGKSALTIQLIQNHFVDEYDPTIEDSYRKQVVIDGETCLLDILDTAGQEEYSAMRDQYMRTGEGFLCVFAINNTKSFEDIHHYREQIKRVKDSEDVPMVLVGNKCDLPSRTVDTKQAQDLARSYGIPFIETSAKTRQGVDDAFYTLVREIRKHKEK
Chain of KRAS G12V (P62937 whole entry): as the sequence (P62937 whole entry) above
Procedure, shortened: as §2

[7] = target: KRAS G13C (Homo sapiens, UniProt P01116+P62937, G13C); assay: as above; assay type: biochemical
Chain of KRAS G13C (P01116 1-169 isoform P01116-2 G13C): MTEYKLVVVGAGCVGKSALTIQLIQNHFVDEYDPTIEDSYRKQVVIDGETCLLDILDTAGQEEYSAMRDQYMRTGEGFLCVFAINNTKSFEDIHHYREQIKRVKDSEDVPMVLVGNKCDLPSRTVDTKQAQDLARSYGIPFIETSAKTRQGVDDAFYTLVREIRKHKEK
Chain of KRAS G13C (P62937 whole entry): as the sequence (P62937 whole entry) above
Procedure, shortened: as §2

[8] = target: KRAS G13D (Homo sapiens, UniProt P01116+P62937, G13D); assay: as above; assay type: biochemical
Chain of KRAS G13D (P01116 1-169 isoform P01116-2 G13D limits assumed): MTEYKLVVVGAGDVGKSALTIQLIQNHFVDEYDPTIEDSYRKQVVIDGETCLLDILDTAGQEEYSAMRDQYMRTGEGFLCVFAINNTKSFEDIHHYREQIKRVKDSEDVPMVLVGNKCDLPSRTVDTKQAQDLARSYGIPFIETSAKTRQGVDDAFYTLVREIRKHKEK
Chain of KRAS G13D (P62937 whole entry): as the sequence (P62937 whole entry) above
Procedure, shortened: as §2

[9] = target: KRAS WT (Homo sapiens, UniProt P01116+P62937); assay: as above; assay type: biochemical
Chain of KRAS WT (P01116 1-169 isoform P01116-2 limits assumed): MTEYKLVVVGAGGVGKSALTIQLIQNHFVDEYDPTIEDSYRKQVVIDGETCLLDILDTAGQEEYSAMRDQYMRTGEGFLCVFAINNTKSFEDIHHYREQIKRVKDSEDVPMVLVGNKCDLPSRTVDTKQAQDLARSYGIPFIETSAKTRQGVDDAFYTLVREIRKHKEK
Chain of KRAS WT (P62937 whole entry): as the sequence (P62937 whole entry) above
Procedure, shortened: as §2

[10] = target: NRAS G12C (Homo sapiens, UniProt P01111+P62937, G12C); assay: as above; assay type: biochemical
Chain of NRAS G12C (P01111 whole entry G12C): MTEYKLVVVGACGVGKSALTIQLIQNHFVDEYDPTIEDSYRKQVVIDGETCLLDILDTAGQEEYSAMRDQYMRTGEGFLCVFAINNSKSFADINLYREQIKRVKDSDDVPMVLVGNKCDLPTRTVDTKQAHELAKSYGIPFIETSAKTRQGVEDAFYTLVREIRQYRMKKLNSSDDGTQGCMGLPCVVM
Chain of NRAS G12C (P62937 whole entry): as the sequence (P62937 whole entry) above

[11] = target: KRAS Q61H (Homo sapiens, UniProt P01116+P62937, Q61H); assay: as above; assay type: biochemical
Chain of KRAS Q61H (P01116 1-169 isoform P01116-2 Q61H limits assumed): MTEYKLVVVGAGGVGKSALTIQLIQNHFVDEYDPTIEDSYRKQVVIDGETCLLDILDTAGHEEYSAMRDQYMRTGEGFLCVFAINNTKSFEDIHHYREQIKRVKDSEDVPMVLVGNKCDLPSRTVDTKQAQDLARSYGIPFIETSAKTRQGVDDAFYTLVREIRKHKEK
Chain of KRAS Q61H (P62937 whole entry): as the sequence (P62937 whole entry) above
Procedure, shortened: (§3)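 TR-FRET in 25 mM HEPES pH 7.3, 100 mM NaCl, 5 mM MgCl2, 0.1% BSA: 25 μM Cyclophilin A, 12.5 nM His6-Ras-GMPPNP, 50 nM GST-BRAF RBD with compound (10-point 3-fold series from 30 μM), 3 h at 25° C. Anti-His Eu/anti-GST APC added, 1.5 h more; IC50 from decreased FRET ratio versus DMSO.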

[12] = target: NRAS Q61K (Homo sapiens, UniProt P01111+P62937, Q61K); assay: as above; assay type: biochemical
Chain of NRAS Q61K (P01111 whole entry Q61K): as the sequence (P01111 whole entry G12C) above, with C12G, Q61K counted along it
Chain of NRAS Q61K (P62937 whole entry): as the sequence (P62937 whole entry) above
Procedure, shortened: as §3

[13] = target: NRAS Q61R (Homo sapiens, UniProt P01111+P62937, Q61R); assay: as above; assay type: biochemical
Chain of NRAS Q61R (P01111 whole entry Q61R): as the sequence (P01111 whole entry G12C) above, with C12G, Q61R counted along it
Chain of NRAS Q61R (P62937 whole entry): as the sequence (P62937 whole entry) above
Procedure, shortened: as §3

[14] = target: NRAS WT (Homo sapiens, UniProt P01111+P62937); assay: as above; assay type: biochemical
Chain of NRAS WT (P01111 whole entry): as the sequence (P01111 whole entry G12C) above, with C12G counted along it
Chain of NRAS WT (P62937 whole entry): as the sequence (P62937 whole entry) above
Procedure, shortened: as §3

[15] = read-out: KRAS G12C FRET data, IC50
[16] = read-out: KRAS G12D FRET data, IC50
[17] = read-out: KRAS G12S FRET data, IC50
[18] = KRAS G12V, read-out: KRAS G12V FRET data IC50
[19] = read-out: KRAS G13C FRET data, IC50
[20] = KRAS G13D, read-out: KRAS G13D FRET data IC50
[21] = KRAS WT, read-out: KRAS WT FRET data IC50
[22] = NRAS G12C, read-out: NRAS G12C FRET data IC50
[23] = KRAS Q61H, read-out: KRAS Q61H FRET data IC50
[24] = NRAS Q61K, read-out: NRAS Q61K FRET data IC50
[25] = NRAS Q61R, read-out: NRAS Q61R FRET data IC50
[26] = NRAS WT, read-out: NRAS WT FRET data IC50

Structure (SMILES) | pIC50 [1] | pIC50 [2] | pIC50 [3, 15] | pIC50 [4, 16] | pIC50 [5, 17] | pIC50 [6, 18] | pIC50 [7, 19] | pIC50 [8, 20] | pIC50 [9, 21] | pIC50 [10, 22] | pIC50 [11, 23] | pIC50 [12, 24] | pIC50 [13, 25] | pIC50 [14, 26] | also measured
CCn1c(-c2cccnc2[C@H](C)OC)c2c3cc(ccc31)-c1csc(n1)C[C@H](NC(=O)[C@H](C(C)C)N(C)C(=O)N1CC[C@@H]1C(=O)NC)C(=O)N1CCC[C@H](N1)C(=O)OCC(C)(C)C2 [Example A281] | 6.00 to 7.00 | 6.00 to 7.00 | 5.00 to 6.00 | < 5.00 | 5.00 to 6.00 | 5.00 to 6.00 | 5.00 to 6.00 | 5.00 to 6.00 | 5.00 to 6.00 | 5.00 to 6.00 | 6.00 to 7.00 | 6.00 to 7.00 | 5.00 to 6.00 | 5.00 to 6.00 | 
CCn1c(-c2cccnc2[C@H](C)OC)c2c3cc(ccc31)-c1csc(n1)[C@@H](O)[C@H](NC(=O)[C@H](C(C)C)N(C)C(=O)N1CC(N(C)C)C1)C(=O)N1CCC[C@H](N1)C(=O)OCC(C)(C)C2 (atropisomer, axis not shown) [Example A489] | 6.00 to 7.00 | 7.00 to 8.00 | 7.00 to 8.00 | 5.00 to 6.00 | 6.00 to 7.00 | 6.00 to 7.00 | 6.00 to 7.00 | 6.00 to 7.00 | 6.00 to 7.00 | 7.00 to 8.00 | 6.00 to 7.00 | 7.00 to 8.00 | 6.00 to 7.00 | 6.00 to 7.00 | 
CCn1c(-c2cc(C3CCN(C)CC3)cnc2[C@H](C)OC)c2c3cc(ccc31)-c1cc(O)cc(c1)C[C@H](NC(=O)[C@H](C(C)C)N(C)C(=O)[C@@H]1OCC[C@@H]1c1ccccc1)C(=O)N1CCC[C@H](N1)C(=O)OCC(C)(C)C2 (atropisomer, axis not shown) [Example A577] | > 8.00 | > 8.00 | > 8.00 | 7.00 to 8.00 | > 8.00 | 7.00 to 8.00 | 7.00 to 8.00 | 7.00 to 8.00 | 7.00 to 8.00 | > 8.00 | > 8.00 | 7.00 to 8.00 | > 8.00 | > 8.00 | 
CCn1c(-c2cnccc2COC)c2c3cc(ccc31)-c1cc(O)cc(c1)C[C@H](NC(=O)[C@H](C(C)C)N(C)C(=O)[C@H]1CCN(S(C)(=O)=O)C1)C(=O)N1CCC[C@H](N1)C(=O)OCC(C)(C)C2 [Example A24, (2S)—N-[(8S,14S)-22-ethyl-4-hydroxy-21-[4-(methoxymethyl)pyridin-3-yl]-18,18-dimethyl-9,15-dioxo-16-oxa-10,22,28-triazapentacyclo[18.5.2.1^2,6.1^10,14.0^23,27]nonacosa-1(26),2,4,6(29),20,23(27),24-heptaen-8-yl]-2-{1-[(3S)-1-methanesulfonylpyrrolidin-3-yl]-N-methylformamido}-3-methylbutanamide] | 5.00 to 6.00 | 5.00 to 6.00 |  |  |  |  |  |  |  |  |  |  |  |  | pIC50 ([3]; KRAS G12C FRET data, IC50): 6.00 to 7.00; pIC50 ([4]; KRAS G12D FRET data, IC50): 5.00 to 6.00; pIC50 ([5]; KRAS G12S FRET data, IC50): 6.00 to 7.00; pIC50 ([6]; KRAS G12V FRET data IC50, KRAS G12V): 6.00 to 7.00; pIC50 ([7]; KRAS G13C FRET data, IC50): 6.00 to 7.00; pIC50 ([8]; KRAS G13D FRET data IC50, KRAS G13D): 6.00 to 7.00; pIC50 ([9]; KRAS WT FRET data IC50, KRAS WT): 6.00 to 7.00; pIC50 ([10]; NRAS G12C FRET data IC50, NRAS G12C): 6.00 to 7.00; pIC50 ([11]; KRAS Q61H FRET data IC50, KRAS Q61H): 7.00 to 8.00; pIC50 ([12]; NRAS Q61K FRET data IC50, NRAS Q61K): 6.00 to 7.00; pIC50 ([13]; NRAS Q61R FRET data IC50, NRAS Q61R): 6.00 to 7.00; pIC50 ([14]; NRAS WT FRET data IC50, NRAS WT): 6.00 to 7.00
